Experimental data: paper PMC6789782, “Safety Pharmacological Evaluation of the Coffee Component, Caffeoylquinic Acid, and Its Metabolites, Using Ex Vivo and In Vitro Profiling Assays” (Pharmaceuticals, 2019)
Where two headings read alike, the source gives them in different places.

Legend:
Assay in all cases: In vitro profiling, binding assay
5-HT1A = target: T1, 5-HT1A (Homo sapiens, UniProt P08908)
T1 sequence (P08908 1-422): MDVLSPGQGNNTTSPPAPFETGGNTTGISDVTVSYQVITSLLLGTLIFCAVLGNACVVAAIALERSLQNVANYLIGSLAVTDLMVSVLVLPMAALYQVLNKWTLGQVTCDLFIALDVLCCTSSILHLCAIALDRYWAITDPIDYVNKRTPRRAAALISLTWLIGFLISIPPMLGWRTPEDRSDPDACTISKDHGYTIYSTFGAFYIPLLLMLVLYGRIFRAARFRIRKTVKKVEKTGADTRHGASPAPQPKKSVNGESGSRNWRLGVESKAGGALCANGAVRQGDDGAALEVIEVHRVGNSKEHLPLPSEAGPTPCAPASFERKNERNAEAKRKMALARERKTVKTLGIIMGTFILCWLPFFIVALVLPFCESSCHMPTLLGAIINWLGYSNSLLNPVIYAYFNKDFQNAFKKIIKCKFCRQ
Procedure: (§1) Binding and functional assays of CGAs with the proteins known to be pharmacological targets related to the CVS, CNS, and GI functions were conducted. […] In the binding assay, we measured the radiation activity of the solution containing filtered proteins that bound to the tested compound or high-affinity ligand, while in the functional assays, we measured the reaction product. The ability of the test compound to interact with the tested targets was measured as the inhibition of ligand binding to the target or reaction product production (% inhibition).

Dopamine D1 = Dopamine D1 (Homo sapiens, UniProt P21728)
Procedure: as §1

Adrenergic α2A = target: T2, Adrenergic α2A (Homo sapiens, UniProt P08913)
T2 sequence (P08913 1-465): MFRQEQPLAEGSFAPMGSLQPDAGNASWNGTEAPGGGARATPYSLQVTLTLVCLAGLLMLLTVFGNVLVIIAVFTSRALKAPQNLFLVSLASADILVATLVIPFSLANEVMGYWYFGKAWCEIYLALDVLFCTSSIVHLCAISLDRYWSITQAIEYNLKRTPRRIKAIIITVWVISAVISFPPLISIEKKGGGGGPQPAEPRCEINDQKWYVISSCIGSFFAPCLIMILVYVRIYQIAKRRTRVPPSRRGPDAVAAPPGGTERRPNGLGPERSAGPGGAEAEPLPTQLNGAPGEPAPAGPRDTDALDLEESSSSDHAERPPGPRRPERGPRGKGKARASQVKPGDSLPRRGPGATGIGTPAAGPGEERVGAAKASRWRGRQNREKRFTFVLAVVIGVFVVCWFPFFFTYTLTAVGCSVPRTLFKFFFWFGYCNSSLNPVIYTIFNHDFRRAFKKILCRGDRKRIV
Procedure: as §1

Dopamine D2L = Dopamine D2L (Homo sapiens, UniProt P14416)
Procedure: as §1

Muscarinic M1 = target: T3, Muscarinic M1 (Homo sapiens, UniProt P11229)
T3 sequence (P11229 1-460): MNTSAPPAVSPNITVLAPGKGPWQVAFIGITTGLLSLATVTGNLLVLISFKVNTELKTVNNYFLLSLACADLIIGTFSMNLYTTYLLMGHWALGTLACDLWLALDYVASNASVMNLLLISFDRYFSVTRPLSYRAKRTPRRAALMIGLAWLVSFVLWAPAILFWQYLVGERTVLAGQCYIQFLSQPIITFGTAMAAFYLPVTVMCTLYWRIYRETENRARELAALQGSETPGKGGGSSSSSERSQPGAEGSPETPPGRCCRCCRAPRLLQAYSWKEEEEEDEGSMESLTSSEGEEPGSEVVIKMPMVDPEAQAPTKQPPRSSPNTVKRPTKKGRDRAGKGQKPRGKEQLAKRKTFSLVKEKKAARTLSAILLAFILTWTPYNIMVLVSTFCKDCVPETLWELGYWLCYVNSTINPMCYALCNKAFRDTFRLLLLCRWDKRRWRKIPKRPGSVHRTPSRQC
Procedure: as §1

hERG potassium channel = hERG potassium channel (Homo sapiens, UniProt Q12809)
Procedure: as §1

Opiate δ1 = Opiate δ1 (Homo sapiens, UniProt P41143)
Procedure: as §1

5-HT3 = target: T4, 5-HT3 (Homo sapiens, UniProt P46098)
T4 sequence (P46098 24-478): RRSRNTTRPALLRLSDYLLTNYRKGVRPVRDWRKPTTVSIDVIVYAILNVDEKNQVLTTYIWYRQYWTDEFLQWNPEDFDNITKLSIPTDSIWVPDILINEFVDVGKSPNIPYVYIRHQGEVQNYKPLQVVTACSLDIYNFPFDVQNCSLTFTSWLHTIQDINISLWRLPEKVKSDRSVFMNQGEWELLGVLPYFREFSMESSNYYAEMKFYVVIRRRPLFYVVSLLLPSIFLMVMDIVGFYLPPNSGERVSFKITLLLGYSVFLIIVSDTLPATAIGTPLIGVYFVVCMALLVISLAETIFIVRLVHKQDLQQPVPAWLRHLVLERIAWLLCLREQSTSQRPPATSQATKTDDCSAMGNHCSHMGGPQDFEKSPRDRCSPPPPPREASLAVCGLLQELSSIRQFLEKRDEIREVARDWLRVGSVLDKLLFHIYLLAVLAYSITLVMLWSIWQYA
Procedure: as §1

Muscarinic M3 = Muscarinic M3 (Homo sapiens, UniProt P20309)
Procedure: as §1

Opiate μ = Opiate μ (Homo sapiens, UniProt P35372)
Procedure: as §1

Vasopressin V1A = Vasopressin V1A (Homo sapiens, UniProt P37288)
Procedure: as §1

[1] = 30 µM, 5-HT1A, read-out: % Inhibition
[2] = 30 µM, Dopamine D1, read-out: % Inhibition
[3] = 30 µM, Adrenergic α2A, read-out: % Inhibition
[4] = 30 µM, Dopamine D2L, read-out: % Inhibition
[5] = probe radioisotope-labeled high-affinity ligand (not named), 30 µM, Potassium Channel hERG, read-out: % Inhibition
[6] = 30 µM, Opiate δ1, read-out: % Inhibition
[7] = 30 µM, 5-HT3, read-out: % Inhibition
[8] = 30 µM, Opiate μ, read-out: % Inhibition
[9] = 30 µM, Vasopressin V1A, read-out: % Inhibition

Sequence of Dopamine D2L (P14416 whole entry): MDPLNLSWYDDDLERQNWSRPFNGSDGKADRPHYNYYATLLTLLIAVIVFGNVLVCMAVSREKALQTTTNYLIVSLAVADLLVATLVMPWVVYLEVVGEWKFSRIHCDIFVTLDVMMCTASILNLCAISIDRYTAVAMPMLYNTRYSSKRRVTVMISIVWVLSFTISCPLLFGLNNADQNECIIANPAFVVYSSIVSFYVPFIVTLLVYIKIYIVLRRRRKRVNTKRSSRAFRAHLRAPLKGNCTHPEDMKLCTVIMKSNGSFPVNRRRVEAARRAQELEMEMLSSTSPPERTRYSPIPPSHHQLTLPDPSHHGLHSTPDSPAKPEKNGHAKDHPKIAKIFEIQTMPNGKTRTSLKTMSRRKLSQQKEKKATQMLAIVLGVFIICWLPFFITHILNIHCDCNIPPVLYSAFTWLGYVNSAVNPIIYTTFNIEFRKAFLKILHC
Sequence of Opiate μ (P35372 whole entry): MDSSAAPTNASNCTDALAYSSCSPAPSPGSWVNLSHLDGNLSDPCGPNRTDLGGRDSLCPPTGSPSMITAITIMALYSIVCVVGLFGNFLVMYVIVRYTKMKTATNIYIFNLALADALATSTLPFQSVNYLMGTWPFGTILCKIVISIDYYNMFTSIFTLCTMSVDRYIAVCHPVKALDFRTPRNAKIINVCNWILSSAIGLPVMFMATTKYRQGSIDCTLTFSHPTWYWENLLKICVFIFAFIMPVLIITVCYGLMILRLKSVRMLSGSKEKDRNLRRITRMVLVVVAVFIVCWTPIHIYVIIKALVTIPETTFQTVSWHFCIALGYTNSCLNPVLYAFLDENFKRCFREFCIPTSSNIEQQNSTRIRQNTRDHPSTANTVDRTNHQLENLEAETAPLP
Sequence of Opiate δ1 (P41143 whole entry): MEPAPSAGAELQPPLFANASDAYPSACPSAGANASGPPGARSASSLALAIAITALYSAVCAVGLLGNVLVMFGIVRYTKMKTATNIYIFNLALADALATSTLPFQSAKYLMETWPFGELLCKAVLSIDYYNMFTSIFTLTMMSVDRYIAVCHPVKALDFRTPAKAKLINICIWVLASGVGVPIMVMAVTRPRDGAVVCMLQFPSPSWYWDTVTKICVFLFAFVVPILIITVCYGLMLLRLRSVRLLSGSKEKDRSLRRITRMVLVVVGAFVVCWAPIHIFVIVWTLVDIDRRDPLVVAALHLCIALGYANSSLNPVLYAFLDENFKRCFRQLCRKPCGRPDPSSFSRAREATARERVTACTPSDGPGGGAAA
Sequence of Muscarinic M3 (P20309 whole entry): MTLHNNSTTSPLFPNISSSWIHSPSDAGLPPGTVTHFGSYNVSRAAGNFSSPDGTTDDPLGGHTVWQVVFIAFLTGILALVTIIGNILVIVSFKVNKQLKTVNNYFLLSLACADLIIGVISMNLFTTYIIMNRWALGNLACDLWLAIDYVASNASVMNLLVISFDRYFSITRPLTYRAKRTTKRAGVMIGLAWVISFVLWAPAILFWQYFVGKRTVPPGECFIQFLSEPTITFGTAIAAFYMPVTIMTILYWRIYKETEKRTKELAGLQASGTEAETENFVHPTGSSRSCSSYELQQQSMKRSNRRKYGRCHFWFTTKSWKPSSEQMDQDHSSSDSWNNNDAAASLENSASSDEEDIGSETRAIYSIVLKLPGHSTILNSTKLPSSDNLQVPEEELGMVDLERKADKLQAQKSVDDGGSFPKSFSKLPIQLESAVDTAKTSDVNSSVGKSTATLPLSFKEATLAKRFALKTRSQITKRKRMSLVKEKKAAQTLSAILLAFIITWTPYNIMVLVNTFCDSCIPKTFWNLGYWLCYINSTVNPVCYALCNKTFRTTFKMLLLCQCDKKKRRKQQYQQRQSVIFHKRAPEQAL
Sequence of hERG potassium channel (Q12809 whole entry): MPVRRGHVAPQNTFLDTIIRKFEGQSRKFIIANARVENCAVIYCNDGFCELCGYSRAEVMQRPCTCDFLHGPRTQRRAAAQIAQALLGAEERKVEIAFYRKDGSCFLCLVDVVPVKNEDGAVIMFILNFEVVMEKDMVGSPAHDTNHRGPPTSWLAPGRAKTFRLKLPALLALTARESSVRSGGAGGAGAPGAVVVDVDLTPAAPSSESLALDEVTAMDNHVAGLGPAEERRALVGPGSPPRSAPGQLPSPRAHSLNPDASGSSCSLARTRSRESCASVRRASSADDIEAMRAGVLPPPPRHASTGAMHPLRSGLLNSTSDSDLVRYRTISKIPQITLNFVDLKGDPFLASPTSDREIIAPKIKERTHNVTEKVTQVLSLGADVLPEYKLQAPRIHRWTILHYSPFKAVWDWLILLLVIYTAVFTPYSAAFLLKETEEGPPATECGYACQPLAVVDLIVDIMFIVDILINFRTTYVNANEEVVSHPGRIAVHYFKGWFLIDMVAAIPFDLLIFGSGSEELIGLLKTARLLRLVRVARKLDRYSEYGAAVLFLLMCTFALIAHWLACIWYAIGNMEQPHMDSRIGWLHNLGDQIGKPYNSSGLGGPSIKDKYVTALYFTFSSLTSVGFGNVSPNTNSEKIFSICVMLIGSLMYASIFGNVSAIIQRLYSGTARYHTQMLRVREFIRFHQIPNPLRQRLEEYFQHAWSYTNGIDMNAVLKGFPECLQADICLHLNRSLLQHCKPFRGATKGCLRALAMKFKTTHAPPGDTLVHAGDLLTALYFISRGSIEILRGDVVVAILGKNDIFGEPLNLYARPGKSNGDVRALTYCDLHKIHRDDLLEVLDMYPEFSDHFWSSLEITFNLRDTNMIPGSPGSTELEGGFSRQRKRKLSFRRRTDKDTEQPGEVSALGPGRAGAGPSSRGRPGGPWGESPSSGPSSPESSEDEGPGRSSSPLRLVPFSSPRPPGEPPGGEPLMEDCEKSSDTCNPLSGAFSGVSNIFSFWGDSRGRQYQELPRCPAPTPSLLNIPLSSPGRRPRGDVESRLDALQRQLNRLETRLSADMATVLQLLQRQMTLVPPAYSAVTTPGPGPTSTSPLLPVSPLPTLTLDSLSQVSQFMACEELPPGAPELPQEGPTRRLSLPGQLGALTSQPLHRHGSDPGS
Sequence of Vasopressin V1A (P37288 whole entry): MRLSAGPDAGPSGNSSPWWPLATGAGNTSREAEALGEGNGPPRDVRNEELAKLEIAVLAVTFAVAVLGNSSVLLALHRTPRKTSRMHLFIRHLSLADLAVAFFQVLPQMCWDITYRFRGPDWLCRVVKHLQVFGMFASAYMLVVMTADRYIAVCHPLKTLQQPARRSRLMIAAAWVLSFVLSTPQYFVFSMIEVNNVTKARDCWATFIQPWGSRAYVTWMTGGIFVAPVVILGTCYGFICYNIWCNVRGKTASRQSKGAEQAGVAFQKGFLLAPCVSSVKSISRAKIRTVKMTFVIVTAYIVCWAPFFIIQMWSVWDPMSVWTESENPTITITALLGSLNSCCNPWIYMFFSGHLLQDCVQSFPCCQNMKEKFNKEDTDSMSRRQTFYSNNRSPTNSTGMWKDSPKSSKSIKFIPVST
Sequence of Dopamine D1 (P21728 whole entry): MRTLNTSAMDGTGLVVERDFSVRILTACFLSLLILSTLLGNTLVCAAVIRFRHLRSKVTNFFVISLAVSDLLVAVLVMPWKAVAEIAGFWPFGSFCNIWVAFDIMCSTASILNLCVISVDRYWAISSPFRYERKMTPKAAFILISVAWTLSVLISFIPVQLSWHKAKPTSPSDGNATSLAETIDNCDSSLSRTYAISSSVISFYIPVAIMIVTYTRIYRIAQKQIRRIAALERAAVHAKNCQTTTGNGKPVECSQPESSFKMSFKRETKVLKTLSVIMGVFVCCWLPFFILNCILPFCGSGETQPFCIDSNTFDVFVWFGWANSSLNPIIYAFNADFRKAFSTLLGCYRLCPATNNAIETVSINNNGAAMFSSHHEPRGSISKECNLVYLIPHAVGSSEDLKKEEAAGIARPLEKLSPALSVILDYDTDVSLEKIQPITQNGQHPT

Structure (SMILES) | inhibition at 30 µM (5-HT1A; [1]) [%] | inhibition at 30 µM (Dopamine D1; [2]) [%] | inhibition at 30 µM (Adrenergic α2A; [3]) [%] | inhibition at 30 µM (Dopamine D2L; [4]) [%] | inhibition at 30 µM (hERG potassium channel; [5]) [%] | inhibition at 30 µM (Opiate δ1; [6]) [%] | inhibition at 30 µM (5-HT3; [7]) [%] | inhibition at 30 µM (Muscarinic M3) [%] | inhibition at 30 µM (Opiate μ; [8]) [%] | inhibition at 30 µM (Vasopressin V1A; [9]) [%] | inhibition at 30 µM (Muscarinic M1) [%] | inhibition at 30 µM (Dopamine D2L) [%] | other results
COc1cc(/C=C/C(=O)O[C@H]2C[C@@](O)(C(=O)O)C[C@H](O)[C@@H]2O)ccc1O [5-FQA, 5-O-feruloylquinic acid] | 11 | 22 | -3 | -8 | 6 | 2 | -3 | 2 | 5 | 16 | – | – | inhibition at 30 µM (Muscarinic M1; 30 µM, Muscarinic M1, read-out: % Inhibition): -5%
O=C(/C=C/c1ccc(O)c(O)c1)O[C@H]1C[C@@](O)(C(=O)O)C[C@H](O)[C@@H]1O [5-CQA, 5-O-caffeoylquinic acid] | 12 | 7 | 5 | 7 | 3 | 5 | -9 | 5 | 8 | 0 | 0 | – | –
COc1cc(/C=C/C(=O)O)ccc1O [FA, ferulic acid] | – | – | – | – | – | – | – | – | – | – | – | 9 | inhibition at 30 µM (5-HT1A): 2%; inhibition at 30 µM (Dopamine D1): -1%; inhibition at 30 µM (Adrenergic α2A): -2%; inhibition at 30 µM (hERG potassium channel; 30 µM, Potassium Channel hERG, read-out: % Inhibition): 7%; inhibition at 30 µM (Opiate δ1): 16%; inhibition at 30 µM (5-HT3): -13%; inhibition at 30 µM (Opiate μ): 4%; inhibition at 30 µM (Vasopressin V1A): 6%
O=C(O)/C=C/c1ccc(O)c(O)c1 [CA, caffeic acid] | – | – | – | – | – | – | – | – | – | – | 5 | 16 | % Inhibition (5-HT1A; 30 µM, 5-HT1A): 9%; % Inhibition (Dopamine D1; 30 µM, Dopamine D1): 5%; % Inhibition (Adrenergic α2A; 30 µM, Adrenergic α2A): −4%; inhibition at 30 µM (hERG potassium channel): -19%; % Inhibition (Opiate δ1; 30 µM, Opiate δ1): 11%; % Inhibition (5-HT3; 30 µM, 5-HT3): −5%; % Inhibition (Muscarinic M3; 30 µM): −3%; % Inhibition (Opiate μ; 30 µM, Opiate μ): −6%; % Inhibition (Vasopressin V1A; 30 µM, Vasopressin V1A): 9%
